The assay can be described thus: In Vitro Assays for IDH1m (R132H or R132C) Inhibitors: In the primary reaction, the reduction of α-KG acid to 2-HG is accompanied by a concomitant oxidation of NADPH to NADP. The amount of NADPH remaining at the end of the reaction time is measured in a secondary diaphorase/resazurin reaction in which the NADPH is consumed in a 1:1 molar ratio with the conversion of resazurin to the highly fluorescent resorufin. […] The mixture of compound, enzyme, and cofactor is pre-incubated at room temperature for 1 hr prior to the addition of alpha-ketoglutarate. To perform the secondary reaction, 10 uL of 1× buffer containing 36 μg/ml diaphorase and 30 mM resazurin is added to the primary reaction and incubated for a further 5 minutes at 25° C. Florescence is read on a Spectramax platereader at Ex 544 Em 590. Compounds or compound dilutions are prepared in 100% DMSO concentration and diluted 1:50 into the final reaction. IDH1 wt/IDH1 R132C is assayed under similar conditions except that 1× Buffer is 50 mM K2HPO4, pH 6.5; 10 mM MgCl2; 10% glycerol; 0.03% (w/v) bovine serum albumin and final concentrations are 0.4 ug/mL (4.3 nM) IDH1 wt/IDH1 R132C heterodimer, 0.02 mM alpha-ketoglutarate, 4 uM NADPH, and either 300 μM NADP (saturated) or 30 μM NADP (without saturation). IC50s are determined.IDH1 or IDH2 wildtype (wt) and mutant heterodimers are expressed and purified by methods known in the art. For example, IDH1wt/R132m heterodimer is expressed and purified as follows. Co-expression of IDH1wt-his and IDH1R132C-flag is carried out in sf9 insect cells. Cells (25 g) are resuspended in 250 ml of 50 mM Tris, 500 mM NaCl, pH7.4, at 4° C. with stirring. Cells are disrupted with 4 passes through an M-Y110 Micro fluidizer (Microfluidics) set to 500 psi, and then centrifuged at 22,000 rcf for 20 min at 4° C. The supernatant is harvested and loaded at 15 cm/h on a Histrap FF 5*1 ml column (GE) which is equilibrated with 50 mM Tris, 500 mM NaCl, pH7.4. Host cell contaminants are removed by washing the column with equilibration buffer followed by equilibration buffer containing 20 mM imidazole and 60 mM imidazole to baseline. IDH1wt-his homodimer and IDH1wt-his/IDH1R132C-flag are eluted by equilibration buffer containing 250 mM imidazole. Fractions eluted by 250 mM imidazole are pooled together and loaded at 15 cm/h onto a column pre-packed with 10 ml ANTI-FLAG® M2 Affinity Gel (Sigma), the column is equilibrated with 50 mM Tris, 500 mM NaCl, pH7.4. After washing with equilibration buffer, IDH1wt-his/IDH1R132C-flag heterodimer is eluted by equilibration buffer containing flag peptide (0.2 mg/ml). Aliquots of IDH1wt-his/IDH1R132C-flag are flash frozen in liquid N2 and stored at −80° C. Same conditions are used for the purification of IDH1wt-his/IDH1R132H-flag. For orientation: Resazurin is reduced to fluorescent resorufin, in cell work by metabolically active cells.

Where only a bound is given, the exact number is not on record here.

The IC50 is the concentration that gives 50% inhibition. On to `N#CC1(c2cc(Nc3nc(NC4CCC(F)(F)CC4)nc(-c4cccc(C(F)(F)F)n4)n3)ccn2)CC1`, for which the IC50 was less than 50 nM. The result for `N#CC1(c2cc(Nc3nc(NC4CCC(F)(F)C4)nc(-c4cccc(C(F)(F)F)n4)n3)ccn2)CC1` (centres undefined) reads less than 50 nM; that for `N#CC1(c2cc(Nc3nc(NC4CC5(C4)CC(F)(F)C5)nc(-c4cccc(C(F)(F)F)n4)n3)ccn2)CC1`, “in the range around 75 nM”; that for `N#CC1(c2cc(Nc3nc(NCC(F)(F)F)nc(-c4cccc(C(F)(F)F)n4)n3)ccn2)CC1`, “in the range around 75 nM”.

Values taken from ChEMBL document CHEMBL5728321, “Therapeutically active compounds and their methods of use” (2021).
